In data set [1] the test system is DLD1 MSH6-deficient cells. The experiment in a line: Short-term cell viability assay with or without O^6BG. In kind it is cell-based, human. To be noted: DLD1 (MGMT+, MSH6−), with or without 10 μM O^6BG-induced MGMT depletion. An excerpt:
(§1) FIGS. Z2A-Z2H. […] (FIG. Z2A) IC50 values derived from short-term viability assays in LN229 MGMT+/−, MMR+/− cells treated with TMZ (1a) derivatives. ^aMGMT TI (therapeutic index)=IC50 (MGMT+/MMR+) divided by IC50 (MGMT−/MMR+). ^bMMR RI (resistance index)=IC50 (MGMT−/MMR−) divided by IC50 (MGMT−/MMR+). (FIG. Z2B) Short-term viability assay curves for TMZ (1a), CCNU (14), KL-85 (4b), and KL-50 (4a) in LN229 MGMT+/−, MMR+/− cells. (FIG. Z2C) Clonogenic survival curves for TMZ (1a) in LN229 MGMT+/−, MMR+/− cells, with representative images of wells containing 1000 plated cells treated with 30 μM TMZ (1a). (FIG. Z2D) Clonogenic survival curves for KL-50 (4a) in LN229 MGMT+/−, MMR+/− cells, with representative images of wells containing 1000 plated cells treated with 30 μM KL-50 (4a). (FIG. Z2E) Short-term viability assay curves for TMZ (1a) in DLD1 MSH6-deficient cells pre-treated with 0.01% DMSO control (CTR) or 10 μM O^6BG (+O^6BG) for 1 h prior to TMZ (1a) addition to deplete MGMT. (FIG. Z2F) Short-term viability assay curves for KL-50 (4a) in DLD1 MSH6-deficient cells pre-treated with 0.01% DMSO control (CTR) or 10 μM O^6BG (+O^6BG) for 1 h prior to KL-50 (4a) addition. (FIG. Z2G) Short-term viability assay curves for TMZ (1a) in HCT116 MLH1−/− cells or HCT116 cells complemented with chromosome 3 carrying wildtype MLH1 (+Chr3) pre-treated with 0.01% DMSO control or 10 μM O^6BG (+O^6BG) for 1 h prior to TMZ (1a) addition. (FIG. Z2H) Short-term viability assay curves for KL-50 (4a) in HCT116 MLH1−/− cells or HCT116 cells complemented with chromosome 3 carrying wildtype MLH1 (+Chr3) pre-treated with 0.01% DMSO control or 10 μM O^6BG (+O^6BG) for 1 h prior to KL-50 (4a) addition. For (FIG. Z2B), (FIG. Z2C), (FIG. Z2D), (FIG. Z2E), (FIG. Z2F), (FIG. Z2G), and (FIG. Z2H), points, mean; error bars, SD; n≥3 technical replicates.
(§2) Short-term Cell Viability Assay. Cells were seeded in 96-well plates at 1000 or 2000 cells/well and allowed to adhere at 23° C. for 60 min and then incubated overnight at 37° C. Cells were treated with indicated concentrations of compounds in triplicate for 4-6 days prior to fixation with 3.7% paraformaldehyde and nuclear staining with 1 μg/mL Hoechst 33342 dye. Cells were imaged on a Cytation 3 imaging reader (BioTek) and quantified using CellProfiler software.

The test system of data set [2] is HCT116 MLH1−/− cells and HCT116+Chr3 cells. Described as above. It is filed as cell-based, human. To be noted: for cytotoxicity in HCT116 MLH1−/− cells (in words): MLH1-deficient, with or without 10 μM O^6BG; for cytotoxicity in HCT116+Chr3 cells (in words): complemented with chromosome 3 containing MLH1, with or without 10 μM O^6BG.
Excerpt: as §1, §2

For data set [3], the system named is LN229 MGMT−/MMR− intracranial tumors. The data set can be described thus: Intracranial tumor study. In kind it is in vivo, mouse. To be noted: 25 mg/kg IP M-F×1 week as printed.

As to `NC(=O)c1ncn2c(=O)n(CCF)nnc12` [KL-50, 3-(2-fluoroethyl)-4-oxo-3H,4H-imidazo[4,3-d][1,2,3,5]tetrazine-8-carboxamide], the “cytotoxicity in DLD1 cells (in words)” value in data set [1] is “toxic to these cells, but only after O^6BG-induced MGMT depletion”. In data set [2], the “cytotoxicity in HCT116 MLH1−/− cells (in words)” value is on record as “selective tumor cell killing specifically in the setting of O^6BG-induced MGMT suppression” and the “cytotoxicity in HCT116+Chr3 cells (in words)” value is given as “selective tumor cell killing specifically in the setting of O^6BG-induced MGMT suppression”. For the same compound, the “intracranial tumor growth by BLI (in words)” value in data set [3] is “effective”.

With `Cn1nnc2c(C(N)=O)ncn2c1=O` [TMZ, temozolomide, reference compound], in data set [1], the “cytotoxicity in DLD1 cells (in words)” value is “inactive”. Also, in data set [2], the “cytotoxicity in HCT116 MLH1−/− cells (in words)” value is “inactive” and the “cytotoxicity in HCT116+Chr3 cells (in words)” value was “enhanced sensitivity to TMZ (1a), which was further potentiated by MGMT depletion”. In addition, in data set [3], the “intracranial tumor growth by BLI (in words)” value is recorded as “only transiently suppressed tumor growth”.
